# Measured values published in patent US20090286878A1, “POLYOL DERIVED ANTI-MICROBIAL AGENTS AND COMPOSITIONS” (priority 2008, published 2009).
# Columns and labels:
# Assay in all cases: Fungicidal activity, modified EN12175 test
# Type in all cases: cell-based
# Aureobasidium pullulans = settings: 1% concentration; for A. pull. log reduction 30 min: 30 min contact; for A. pull. log reduction 30 min / A. pull. log reduction 1 h / A. pull. log reduction 24 h: vs water control; for A. pull. log reduction 1 h: 1 h contact; for A. pull. log reduction 24 h: 24 h contact; for A. pull. cfu/mL (residual spore cell count): inoculum 4.0E+06 cfu/mL, room temperature
# Protocol: (§1) Fungicidal activity is tested according to trivial modifications of the standard EN12175 test method. […] Penicillium funiculosum, Aspergillus niger and Aureobasidium pullulans are tested as important mold strains. The resulting cell count reduction is compared to a water control. […]
# Penicillium funiculosum = settings: 1% concentration; for P. funic. log reduction 30 min: 30 min contact; for P. funic. log reduction 30 min / P. funic. log reduction 1 h / P. funic. log reduction 24 h: vs water control; for P. funic. log reduction 1 h: 1 h contact; for P. funic. log reduction 24 h: 24 h contact; for P. funic. cfu/mL (residual spore cell count): inoculum 3.60E+07 cfu/mL, room temperature
# Protocol: as §1
# Aspergillus niger = settings: 1% concentration; for A. niger log reduction 30 min: 30 min contact; for A. niger log reduction 30 min / A. niger log reduction 1 h / A. niger log reduction 24 h: vs water control; for A. niger log reduction 1 h: 1 h contact; for A. niger log reduction 24 h: 24 h contact; for A. niger cfu/mL (residual spore cell count): inoculum 2.60E+08 cfu/mL, room temperature
# Protocol: as §1
SMILES,A. pull. log reduction 30 min (Aureobasidium pullulans) [log],A. pull. log reduction 1 h (Aureobasidium pullulans) [log],A. pull. log reduction 24 h (Aureobasidium pullulans) [log],A. pull. cfu/mL (residual spore cell count) (Aureobasidium pullulans) [cfu/mL],P. funic. log reduction 30 min (Penicillium funiculosum) [log],P. funic. log reduction 1 h (Penicillium funiculosum) [log],P. funic. log reduction 24 h (Penicillium funiculosum) [log],P. funic. cfu/mL (residual spore cell count) (Penicillium funiculosum) [cfu/mL],A. niger log reduction 30 min (Aspergillus niger) [log],A. niger log reduction 1 h (Aspergillus niger) [log],A. niger log reduction 24 h (Aspergillus niger) [log],A. niger cfu/mL (residual spore cell count) (Aspergillus niger) [cfu/mL]
CCCCCCCCCCCCNCCCCCC(=O)OCC(CC)(COC(=O)CCCCCNCCCCCCCCCCCC)COC(=O)CCCCCNCCCCCCCCCCCC [Ex 16],>4,>4,>4,<10,>4,>4,>4,<10,>4,>4,>4,<10
CCCCCCCCNCCC(=O)OCC(CC)(COC(=O)CCNCCCCCCCC)COC(=O)CNCCCCCCCC [Ex 18],>4,>4,>4,<10,>4,>4,>4,<10,>4,>4,>4,<10
